The source of these data is article PMC6150735, “Molecular Docking-Based Design and Development of a Highly Selective Probe Substrate for UDP-glucuronosyltransferase 1A10” (Molecular Pharmaceutics, 2018).

As a reminder, the Km is the substrate concentration at which the rate is half of its maximum.

Each structure is given as a SMILES string. Entries after “also recorded” stand apart in the source; their conditions may differ.

Data set [1] has as its target T1, UGT1A10 (Homo sapiens, UniProt Q9HAW8).
T1 construct: His-tag; made in house; host or cells: baculovirus-infected insect cells
T1 sequence (Q9HAW8 26-530): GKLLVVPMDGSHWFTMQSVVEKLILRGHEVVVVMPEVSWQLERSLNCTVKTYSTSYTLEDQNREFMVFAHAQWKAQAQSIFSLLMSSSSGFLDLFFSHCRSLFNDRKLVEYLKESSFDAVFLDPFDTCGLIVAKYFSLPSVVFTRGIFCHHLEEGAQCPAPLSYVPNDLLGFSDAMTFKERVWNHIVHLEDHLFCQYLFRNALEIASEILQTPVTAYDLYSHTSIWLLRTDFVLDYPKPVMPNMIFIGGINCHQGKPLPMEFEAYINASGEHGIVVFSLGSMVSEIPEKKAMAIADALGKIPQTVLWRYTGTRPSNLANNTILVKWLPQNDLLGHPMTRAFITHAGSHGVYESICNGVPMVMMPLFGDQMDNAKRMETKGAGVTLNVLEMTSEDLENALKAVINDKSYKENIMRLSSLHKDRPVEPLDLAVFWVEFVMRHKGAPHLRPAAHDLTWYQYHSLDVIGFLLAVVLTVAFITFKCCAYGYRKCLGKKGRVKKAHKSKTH
As to the kind of experiment: Glucuronidation kinetics by recombinant wild-type UGT1A10 (fluorescence decrease, 96-well plate). It counts as biochemical. On the procedure: Recombinant human UGTs 1A1, 1A3, 1A6, 1A7, 1A8, 1A9, 1A10, 2A1, 2A2, 2A3, 2B4, 2B10, 2B7, and 2B17 were produced, as His-tagged proteins, in baculovirus-infected insect cells as previously described.[37]−[39] The relative expression level of each of these recombinant UGTs was evaluated by immunodetection, using monoclonal antibody against the His-tag, as described elsewhere.[40] A numeric value of 1.0 was given to the expression level of UGT1A8 and the relative expression level of each of the other UGTs was related to this value. Normalized activities were obtained by dividing the glucuronidation rate values by the relative expression level of the tested UGT. […] The expression levels of the UGTs in the commercial samples could not be determined, so their protein concentration was used to calculate the reaction rate.
The incubation mixtures for glucuronidation assays contained 100 mM Tris-HCl buffer pH 7.4, 2.5 mM MgCl2, 0.5 mM UDPGA, recombinant UGT, or microsomes as the enzyme source and 0–15 μM of the test aglycone substrate. […] In subsequent experiments, the control samples lacked the enzyme source since it gave the highest fluorescence background. […] Fluorescence spectra (excitation 200–420 nm; emission 400–600 nm) or fluorescence decrease at 390 nm excitation and 460 nm emission, were measured in these preliminary experiments, using a Shimadzu RF-5000 spectrophotofluorometer. […]

A short description of data set [2]: Glucuronidation by human liver microsomes (HLM). The note with it: pooled human liver microsomes (HLM), pH 7.4; human hepatic microsomes. The format is in vitro ADME. On the procedure:
(§1) A commercial HLM pool (cat no:452210, BD Gentest, Bedford, MA) and human intestine microsomes (HIM) pool (lot. no 1110189, XenoTech, Kansas City, KS) were purchased. Pig liver samples were prepared from untreated female pigs that were used for practicing surgical procedures at the University of Kuopio (currently: University of Eastern Finland, Kuopio campus). Other animal liver microsomes were prepared as described previously.[41] The Ethics Committee for Animal Experiments, University of Kuopio, approved these experiments.
(§2) The incubation mixtures for glucuronidation assays contained 100 mM Tris-HCl buffer pH 7.4, 2.5 mM MgCl2, 0.5 mM UDPGA, recombinant UGT, or microsomes as the enzyme source and 0–15 μM of the test aglycone substrate. When the incubation mixtures contained microsomes, alamethicin was used at a final concentration of 12.5 μg/mL, but it was not included in the recombinant enzyme assays.[43] In the first experiments three negative control samples were tested, namely (i) without the substrate 7-hydroxycoumarin derivative, (ii) without the cofactor UDPGA, or (iii) without the enzyme source. In subsequent experiments, the control samples lacked the enzyme source since it gave the highest fluorescence background. Preliminary experiments were done under different conditions than most of the later assays, namely in 2.5 mL of 100 mM phosphate buffer pH 7.4, containing 500 μg pig liver microsomes, 1.0 μM compound 6 and 0.5 mM UDPGA, at room temperature. Fluorescence spectra (excitation 200–420 nm; emission 400–600 nm) or fluorescence decrease at 390 nm excitation and 460 nm emission, were measured in these preliminary experiments, using a Shimadzu RF-5000 spectrophotofluorometer.
(§3) Most of the glucuronidation assays were carried out in 96 multiwell plate format, and incubations were carried out in 100 μL and at 37 °C, in the presence of Tris–HCl buffer pH 7.4, UDPGA, and the tested 7-hydroxycoumarin derivative, at the indicated concentrations. Fluorescence decline in the multiwell plate experiments was monitored every other minute, for 40 min, using an excitation filter at 405 nm and detection at 460 nm, in a Victor2 1420 Multilabel counter (PerkinElmer, Life Sciences, Turku, Finland). The fluorescence values were transformed into molarity using the aglycone substrates for making the respective standard curves. Slopes of the substrate concentration decrease per minute were calculated using linear regression analysis, in which the linear part of the kinetic assay indicated the glucuronidation rate. Enzyme catalyzed glucuronidation rate was calculated by subtracting the blank value from the full reaction value. The intra-assay variability of the kinetic assays was 6% when compound 6 was used as the aglycone substrate. Kinetic analyses were also performed in the same 96 multiwell plates format, with excitation filter at 405 nm and detection at 460 nm, using 6–8 different substrate concentrations per substrate and two different protein concentrations for both the wild-type and mutant UGT1A10. The higher concentrations, 13.5 mg/L for UGT1A10 and 12.0 mg/L for the UGT1A10 mutant, were used when the substrates were HFC, compounds 4 and 6, whereas the lower protein concentrations, 6.75 and 6.0 mg/L for UGT1A10 and the mutant, respectively, were used when the substrates were compounds 1, 2, 3, and 5.

Data set [3] relates to human liver microsomes (HLM). Kind of data set: Glucuronidation by human liver microsomes (HLM). The format is in vitro ADME. The protocol:
as §1, §2, §3
A general note: Liver microsomes are a subcellular fraction often used to study metabolism.

A short description of data set [4]: Excitation and emission fluorescence spectra of coumarin derivatives. The format is physicochemical. Details: dose or concentration left out as unconfirmed. The protocol:
The absorbance spectra of 10 μM coumarin derivatives at 100 mM Tris–HCl pH 7.4 containing 10% dimethyl sulfoxide were measured using a Hitachi U-2000 Spectrophotometer (Tokyo, Japan). […] The excitation spectra was from 200 to 420 at 460 nm emission and the emission spectra was from 400 to 600 at 390 nm excitation (data in Supplementary Table S1 and Figures S1 and S2). The effect of pH on fluorescence intensity was determined at 405 nm excitation and 460 nm emission, in the presence of 1.5% trichloroacetic acid, 100 mM phosphate buffers at pH 5, 6, 7, 8, and 9, or 1.6 M glycine–NaOH pH 10.4.

As for `O=c1oc2cc(O)ccc2cc1-n1cncn1` [Compound 6, 7-Hydroxy-3-(1H-1,2,4-triazol-1-yl)-2H-chromen-2-one], in data set [1], the “Intrinsic glucuronidation clearance (Vmax/Km) by UGT1A10 relative to compounds 1–5” value is “less than 30%”. Moreover, the Km in data set [2] is 82 µM. Moreover, the “Glucuronidation by HLM (in words)” value in data set [3] (10 μM aglycone) is “not glucuronidated by HLM at all, or only at very low rates; also recorded: very low or below the detection limit”. In addition, the Vmax in data set [3] (human hepatic microsomes) is reported as 4.0 (2.6–5.4) μmol/(min* g prot). In addition, in data set [4], the “Fluorescence EMmax” value was found to be 494 nm and the “Fluorescence EXmax” value amounted to 396 nm.
